Literature values, collected in patent US20120245518A1, “PHARMACEUTICAL COMPOSITION FOR THE TREATMENT OF BLADDER DISORDERS” (Ritcher Gedeon NYRT., priority 2009, published 2012).

Test system: matrix metalloproteinases, particularly the MMP-9

sodium hyaluronate
inhibitory effect on matrix metalloproteinases, particularly MMP-9: does not show the latter effect
